The text below walks through data of ChEMBL document CHEMBL3046000, “Design and synthesis of 1-(benzothiazol-5-yl)-1H-1,2,4-triazol-5-ones as protoporphyrinogen oxidase inhibitors” (Bioorg Med Chem, 2013).

For experiment [1], the system named is Brassica juncea. The experiment in a line: Post-emergence herbicidal activity against Brassica juncea seedlings assessed as plant growth inhibition at 37.5 g ai/ha measured 15 days after compound treatment under greenhouse conditions. The class given is functional. The note with it: 360 h, read-out: GI.
Experiment [2] has as its system Amaranthus retroflexus. The experiment in a line: Post emergence herbicidal activity against Amaranthus retroflexus seedlings assessed as plant growth inhibition at 37.5 g ai/ha measured 15 days after compound treatment under greenhouse conditions. The class given is functional. The note with it: 360 h, read-out: GI.
Experiment [3] deals with Setaria faberi. Briefly: Post-emergence herbicidal activity against Setaria faberi (Giant Foxtail) seedlings assessed as plant growth inhibition at 37.5 g ai/ha measured 15 days after compound treatment under greenhouse conditions. Conditions: 360 h, read-out: GI. The experiment is classed as functional.
Experiment [4] concerns Chenopodium album. The experiment in a line: Post-emergence herbicidal activity against Chenopodium album seedlings assessed as plant growth inhibition at 37.5 g ai/ha measured 15 days after compound treatment under greenhouse conditions. Conditions: 360 h, read-out: GI. The class given is functional.
Experiment [5] relates to Digitaria sanguinalis. The experiment in a line: Post-emergence herbicidal activity against Digitaria sanguinalis (hairy crabgrass) seedlings assessed as plant growth inhibition at 37.5 g ai/ha measured 15 days after compound treatment under greenhouse conditions. The experiment is classed as functional. The note with it: 360 h, read-out: GI.
Experiment [6] relates to Amaranthus retroflexus. Briefly: Post emergence herbicidal activity against Amaranthus retroflexus seedlings assessed as plant growth inhibition at 75 g ai/ha measured 15 days after compound treatment under greenhouse conditions. The class given is functional. The note with it: 360 h, read-out: GI.
The subject of experiment [7] is Setaria faberi. The experiment in a line: Post-emergence herbicidal activity against Setaria faberi (Giant Foxtail) seedlings assessed as plant growth inhibition at 75 g ai/ha measured 15 days after compound treatment under greenhouse conditions. The experiment is classed as functional. The note with it: 360 h, read-out: GI.
For experiment [8], the system named is Digitaria sanguinalis. Briefly: Post-emergence herbicidal activity against Digitaria sanguinalis (hairy crabgrass) seedlings assessed as plant growth inhibition at 150 g ai/ha measured 15 days after compound treatment under greenhouse conditions. The experiment is classed as functional. The note with it: 360 h, read-out: GI.
Experiment [9] has as its system Chenopodium album. Briefly: Post-emergence herbicidal activity against Chenopodium album seedlings assessed as plant growth inhibition at 75 g ai/ha measured 15 days after compound treatment under greenhouse conditions. The experiment is classed as functional. Conditions: 360 h, read-out: GI.
Experiment [10] concerns Brassica juncea. The experiment in a line: Post-emergence herbicidal activity against Brassica juncea seedlings assessed as plant growth inhibition at 75 g ai/ha measured 15 days after compound treatment under greenhouse conditions. The experiment is classed as functional. The note with it: 360 h, read-out: GI.
The target in experiment [11] is T1, Protoporphyrinogen oxidase, chloroplastic (Nicotiana tabacum, UniProt O24163).
T1 sequence (O24163 whole entry): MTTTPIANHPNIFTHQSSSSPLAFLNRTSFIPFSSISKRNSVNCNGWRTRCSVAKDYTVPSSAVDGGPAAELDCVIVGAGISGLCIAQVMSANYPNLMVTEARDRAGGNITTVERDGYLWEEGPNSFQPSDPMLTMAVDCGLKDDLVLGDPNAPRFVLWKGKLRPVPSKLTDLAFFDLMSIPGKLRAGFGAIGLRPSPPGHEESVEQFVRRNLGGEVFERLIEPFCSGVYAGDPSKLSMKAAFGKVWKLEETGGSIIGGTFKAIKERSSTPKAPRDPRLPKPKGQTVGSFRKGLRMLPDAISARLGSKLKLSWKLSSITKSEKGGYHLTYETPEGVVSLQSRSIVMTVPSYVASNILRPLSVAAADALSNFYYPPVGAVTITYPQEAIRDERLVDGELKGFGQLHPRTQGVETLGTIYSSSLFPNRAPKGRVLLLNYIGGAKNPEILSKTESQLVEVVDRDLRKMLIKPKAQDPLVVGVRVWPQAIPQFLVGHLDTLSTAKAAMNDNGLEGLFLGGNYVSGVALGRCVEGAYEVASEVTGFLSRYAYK
The experiment in a line: Inhibition of Nicotiana tabacum (tobacco) recombinant PPO assessed as protoporphyrin IX formation at room temperature by fluorimetric assay.

Experiment [12] deals with Echinochloa crus-galli. Briefly: Post emergence herbicidal activity against Echinochloa crus-galli (barnyard grass) seedlings assessed as plant growth inhibition at 75 g ai/ha measured 15 days after compound treatment under greenhouse conditions. The class given is functional. The note with it: 360 h, read-out: GI.
Experiment [13] deals with Amaranthus retroflexus. Briefly: Post emergence herbicidal activity against Amaranthus retroflexus seedlings assessed as plant growth inhibition at 150 g ai/ha measured 15 days after compound treatment under greenhouse conditions. The class given is functional. The note with it: 360 h, read-out: GI.
Experiment [14] deals with Echinochloa crus-galli. Briefly: Post emergence herbicidal activity against Echinochloa crus-galli (barnyard grass) seedlings assessed as plant growth inhibition at 150 g ai/ha measured 15 days after compound treatment under greenhouse conditions. The experiment is classed as functional. The note with it: 360 h, read-out: GI.
Experiment [15] concerns Echinochloa crus-galli. Briefly: Post emergence herbicidal activity against Echinochloa crus-galli (barnyard grass) seedlings assessed as plant growth inhibition at 37.5 g ai/ha measured 15 days after compound treatment under greenhouse conditions. The experiment is classed as functional. Conditions: 360 h, read-out: GI.
The test system of experiment [16] is Setaria faberi. The experiment in a line: Post-emergence herbicidal activity against Setaria faberi (Giant Foxtail) seedlings assessed as plant growth inhibition at 150 g ai/ha measured 15 days after compound treatment under greenhouse conditions. The experiment is classed as functional. The note with it: 360 h, read-out: GI.
Experiment [17] deals with Chenopodium album. The experiment in a line: Post-emergence herbicidal activity against Chenopodium album seedlings assessed as plant growth inhibition at 150 g ai/ha measured 15 days after compound treatment under greenhouse conditions. Conditions: 360 h, read-out: GI. The class given is functional.
The subject of experiment [18] is Digitaria sanguinalis. Briefly: Post-emergence herbicidal activity against Digitaria sanguinalis (hairy crabgrass) seedlings assessed as plant growth inhibition at 75 g ai/ha measured 15 days after compound treatment under greenhouse conditions. The class given is functional. The note with it: 360 h, read-out: GI.
Experiment [19] relates to Brassica juncea. Briefly: Post-emergence herbicidal activity against Brassica juncea seedlings assessed as plant growth inhibition at 150 g ai/ha measured 15 days after compound treatment under greenhouse conditions. The note with it: 360 h, read-out: GI. The experiment is classed as functional.

As usually defined, the Ki is a measure of affinity in units of concentration, obtained from inhibition or displacement. Regarding `COC(=O)CSc1nc2cc(-n3nc(C)n(C(F)F)c3=O)c(F)cc2s1`, the inhibition of growth at 37.5 g/ha with Brassica juncea [1] was 60%; with Amaranthus retroflexus [2] it was at least 90%; with Setaria faberi [3], 60%; in the experiment on Chenopodium album [4], under 50%; in the experiment on Digitaria sanguinalis [5], under 50%; in the experiment on Echinochloa crus-galli [15] it was 60%. The inhibition of growth at 75 g/ha in the experiment with Amaranthus retroflexus [6] was at least 90%; in the experiment on Setaria faberi [7], 60%; with Chenopodium album [9], at least 90%; in the experiment on Brassica juncea [10], at least 90%; in the experiment with Echinochloa crus-galli [12], 60%; in the experiment with Digitaria sanguinalis [18] it was under 50%. Besides, the inhibition of growth at 150 g/ha in the experiment on Digitaria sanguinalis [8], in the experiment with Amaranthus retroflexus [13], in the experiment with Echinochloa crus-galli [14], with Setaria faberi [16], in the experiment on Chenopodium album [17] and in the experiment with Brassica juncea [19] was at least 90% each time. Besides, in experiment [11], the Ki turned out to be 1080 nM.
